Measurements taken from patent publication US11564924B2, “Pharmaceutical composition formed by combining pyridoxamine compound and thiamine compound” (RENASCIENCE CO., LTD., priority 2014, dated 2023).

Key:
vitamin B1 = assay: Whole blood vitamin B1 amount in schizophrenia patients during drug administration (LC/MS/MS); type: in vivo, human
Method: Measurement of the amount of vitamin B1 in whole blood (blood collection with heparin) was outsourced to SRL Inc., and the measurement was performed using LC/MS/MS.

[1] = test system: Wernicke's encephalopathy; assay: Wernicke's encephalopathy findings (MRI of the brain, symptoms) during drug administration; type: in vivo, human
Method: Immediately after the patient was suspected of having Wernicke's encephalopathy, oral administration of a thiamine compound (fursultiamine (Takeda Pharmaceutical Company Limited)) at a dose of 75 mg/day was initiated (administered once a day) and continued every day.
Immediately after the patient was suspected of having Wernicke's encephalopathy, intravenous administration of a thiamine compound (fursultiamine (Takeda Pharmaceutical Company Limited)) (300 mg/day) was performed, and then (from 10 weeks after the start of drug administration), oral administration of the thiamine compound at a dose of 100 to 50 mg/day was continued.

[2] = test system: vitamin B1 in human whole blood; assay: In vitro effect on vitamin B1 concentration in human whole blood; settings: human whole blood, 5, 50, 500 μg/mL, 37° C.
Source text: In addition, as described in Experiment Example 1 and Experiment Example 2, administration of a pyridoxamine compound increases not only the serum pyridoxamine concentration, but also the serum pyridoxal concentration, and thus, pyridoxamine and pyridoxal were both used as test substances for the investigation.
Blood was collected from a human using EDTA⋅2K as an anticoagulant. In addition, pyridoxamine dihydrochloride (Sigma-Aldrich Japan) was used as pyridoxamine, and pyridoxal hydrochloride (Nacalai Tesque, Inc.) was used as pyridoxal. They were dissolved at 0.5, 5, and 50 mg/mL in physiological saline to prepare test solutions. 10 μL of each test solution was individually added per mL of the whole blood collected above (test samples). The final concentrations of each test substance in the test samples were 5, 50, 500 μg/mL. Further, a vehicle was prepared by adding 10 μl of physiological saline to 1 ml of the whole blood. The vehicle and the test samples were incubated at 37° C. for 1 hour or 16 hours and then immediately frozen. Measurement of the vitamin B1 concentrations in the whole blood before the start of the incubation to which neither the physiological saline nor any test solution was added (baseline: indicated by “BL” in FIG. 4), and in the vehicle and in each test sample after the incubation, was outsourced to SRL Inc., and the measurement was performed using LC/MS/MS.

| Compound | whole blood vitamin B1 amount (vitamin B1; patient ID No. 3, 12 weeks after the start of drug administration (6 weeks after start of fursultiamine 75 mg/day oral), pyridoxamine compound continued) [ng/mL] | whole blood vitamin B1 amount (vitamin B1; patient ID No. 6, 11 weeks after the start of drug administration (3 weeks after start of thiamine compound: 300 mg/day intravenous, then 100 to 50 mg/day oral)) [ng/mL] | symptom of Wernicke's encephalopathy ([1]; patient ID No. 3, 14 weeks after the start of drug administration (8 weeks after the start of the thiamine compound, 75 mg/day oral)) | symptom of Wernicke's encephalopathy ([1]; patient ID No. 6, 11 weeks after the start of drug administration (3 weeks after the start of the thiamine compound)) | change in whole blood vitamin B1 concentration ([2]; 1 hour incubation) | change in whole blood vitamin B1 concentration ([2]; 16 hours incubation) |
| --- | --- | --- | --- | --- | --- | --- |
| CC(=C(CCO)SSCC1CCCO1)N(C=O)Cc1cnc(C)nc1N (stereo in doubt) [fursultiamine] | 135 | 150 | disappeared | disappeared | – | – |
| Cc1ncc(CO)c(C=O)c1O.Cl [pyridoxal hydrochloride] | – | – | – | – | decrease in the vitamin B1 concentration in a manner dependent on the concentration of pyridoxal hydrochloride | decrease in the vitamin B1 concentration in a manner dependent on the concentration of pyridoxal hydrochloride |
